In US20250114374A1, “BCL-2 INHIBITORS” (Newave Pharmaceutical Inc., priority 2021, published 2025):
pIC50: −log10 of the molar value.

Each compound was assayed on RS4; 11 with G101V mutation (assay: In vitro anti-proliferation assay (ATPlite luminescence) in BCL-2-dependent ALL cell line RS4;11 with G101V mutation). Conditions: cellular anti-proliferative IC50, about 72 hours, medium with 10% FBS, ATPlite; read-out: RS411-G101V IC50.
Type: cell-based
Method in brief: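 RS4;11 G101V cells at about 1×10^4 per well were exposed to a range of compound concentrations for about 72 h in medium with 10% FBS. Cellular ATP was measured by ATPlite luminescence after lysis, and IC50 was derived from the dose-response.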

| Structure (SMILES) | pIC50 |
| --- | --- |
| Cc1ccccc1[C@@H]1CN(C2CCN(C3CCOCC3)CC2)CCN1C1CC2(CCN(c3ccc(C(=O)NS(=O)(=O)c4cc5c(c([N+](=O)[O-])c4)N[C@H](C4CCOCC4)CO5)c(N4c5cc6cc[nH]c6nc5O[C@H]5COCC[C@@H]54)c3)CC2)C1 [Example 201, 2-[(3R,8S)-2,5-dioxa-9,15,17-triazatetracyclo[8.7.0.0^{3,8}.0^{12,16}]heptadeca-1(10),11,13,16-tetraen-9-yl]-4-{2-[(2R)-2-(2-methylphenyl)-4-[1-(oxan-4-yl)piperidin-4-yl]piperazin-1-yl]-7-azaspiro[3.5]nonan-7-yl}-N-[(3R)-5-nitro-3-(oxan-4-yl)-3,4-dihydro-2H-1,4-benzoxazin-7-ylsulfonyl]benzamide] | 6.63 |
| Cc1ccccc1[C@@H]1CN(C2CCC3(CCOCC3)CC2)CCN1C1CC2(CCN(c3ccc(C(=O)NS(=O)(=O)c4cc5c(c([N+](=O)[O-])c4)N[C@H](C4CCOCC4)CO5)c(N4c5cc6cc[nH]c6nc5O[C@H]5COCC[C@@H]54)c3)CC2)C1 (stereo partly drawn) [Example 202, 2-[(3R,8S)-2,5-dioxa-9,15,17-triazatetracyclo[8.7.0.0^{3,8}.0^{12,16}]heptadeca-1(10),11,13,16-tetraen-9-yl]-4-{2-[(2R)-2-(2-methylphenyl)-4-{3-oxaspiro[5.5]undecan-9-yl}piperazin-1-yl]-7-azaspiro[3.5]nonan-7-yl}-N-[(3R)-5-nitro-3-(oxan-4-yl)-3,4-dihydro-2H-1,4-benzoxazin-7-ylsulfonyl]benzamide] | 7.82 |
| Cc1ccccc1[C@@H]1CN(C2CCC(N3CCOC[C@@H]3C)CC2)CCN1C1CC2(CCN(c3ccc(C(=O)NS(=O)(=O)c4cc5c(c([N+](=O)[O-])c4)N[C@H](C4CCOCC4)CO5)c(N4c5cc6cc[nH]c6nc5O[C@H]5COCC[C@@H]54)c3)CC2)C1 (stereo partly drawn) [Example 203, 4-(2-((R)-4-((1S,4R)-4-((S)-3-methylmorpholino)cyclohexyl)-2-(o-tolyl)piperazin-1-yl)-7-azaspiro[3.5]nonan-7-yl)-N-(((R)-5-nitro-3-(tetrahydro-2H-pyran-4-yl)-3,4-dihydro-2H-benzo[b][1,4]oxazin-7-yl)sulfonyl)-2-((5aS,9aR)-6,7,9,9a-tetrahydro-1H-pyrano[3,4-b]pyrrolo[3′,2′:5,6]pyrido[3,2-e][1,4]oxazin-5(5aH)-yl)benzamide] | 7.16 |
| Cc1ccccc1[C@@H]1CN(C2CCC(N3CCOC[C@@H]3C)CC2)CCN1C1CC2(CCN(c3ccc(C(=O)NS(=O)(=O)c4cc5c(c([N+](=O)[O-])c4)N[C@H](C4CCOCC4)CO5)c(N4c5cc6cc[nH]c6nc5O[C@H]5COCC[C@@H]54)c3)CC2)C1 (stereo partly drawn) [Example 204, 4-(2-((R)-4-((1R,4S)-4-((S)-3-methylmorpholino)cyclohexyl)-2-(o-tolyl)piperazin-1-yl)-7-azaspiro[3.5]nonan-7-yl)-N-(((R)-5-nitro-3-(tetrahydro-2H-pyran-4-yl)-3,4-dihydro-2H-benzo[b][1,4]oxazin-7-yl)sulfonyl)-2-((5aS,9aR)-6,7,9,9a-tetrahydro-1H-pyrano[3,4-b]pyrrolo[3′,2′:5,6]pyrido[3,2-e][1,4]oxazin-5(5aH)-yl)benzamide] | 7.56 |
| Cc1ccccc1[C@@H]1CN(Cc2cnc(N3CCOC[C@@H]3C)c(C)c2)CCN1C1CC2(CCN(c3ccc(C(=O)NS(=O)(=O)c4cc5c(c([N+](=O)[O-])c4)N[C@H](C4CCOCC4)CO5)c(N4c5cc6cc[nH]c6nc5O[C@H]5COCC[C@@H]54)c3)CC2)C1 [Example 205, 2-[(3R,8S)-2,5-dioxa-9,15,17-triazatetracyclo[8.7.0.0^{3,8}.0^{12,16}]heptadeca-1(10),11,13,16-tetraen-9-yl]-4-{2-[(2R)-4-({5-methyl-6-[(3S)-3-methylmorpholin-4-yl]pyridin-3-yl}methyl)-2-(2-methylphenyl)piperazin-1-yl]-7-azaspiro[3.5]nonan-7-yl}-N-[(3R)-5-nitro-3-(oxan-4-yl)-3,4-dihydro-2H-1,4-benzoxazin-7-ylsulfonyl]benzamide] | 7.67 |
| Cc1ccccc1[C@@H]1CN(Cc2cnc(N3CCOC[C@@H]3C)c(C(F)(F)F)c2)CCN1C1CC2(CCN(c3ccc(C(=O)NS(=O)(=O)c4cc5c(c([N+](=O)[O-])c4)N[C@H](C4CCOCC4)CO5)c(N4c5cc6cc[nH]c6nc5O[C@H]5COCC[C@@H]54)c3)CC2)C1 [Example 206, 2-[(3R,8S)-2,5-dioxa-9,15,17-triazatetracyclo[8.7.0.0^{3,8}.0^{12,16}]heptadeca-1(10),11,13,16-tetraen-9-yl]-4-{2-[(2R)-4-({6-[(3S)-3-methylmorpholin-4-yl]-5-(trifluoromethyl)pyridin-3-yl}methyl)-2-(2-methylphenyl)piperazin-1-yl]-7-azaspiro[3.5]nonan-7-yl}-N-[(3R)-5-nitro-3-(oxan-4-yl)-3,4-dihydro-2H-1,4-benzoxazin-7-ylsulfonyl]benzamide] | 6.64 |
| CC(C)Oc1ccccc1[C@@H]1CN(C2CCC(C)(O)CC2)CCN1C1CC2(CCN(c3ccc(C(=O)NS(=O)(=O)c4cc5c(c([N+](=O)[O-])c4)N[C@H](C4CCOCC4)CO5)c(N4c5cc6cc[nH]c6nc5O[C@H]5COCC[C@@H]54)c3)CC2)C1 (stereo partly drawn) [Example 207, 4-(2-((R)-4-((1r,4R)-4-hydroxy-4-methylcyclohexyl)-2-(2-isopropoxyphenyl)piperazin-1-yl)-7-azaspiro[3.5]nonan-7-yl)-N-(((R)-5-nitro-3-(tetrahydro-2H-pyran-4-yl)-3,4-dihydro-2H-benzo[b][1,4]oxazin-7-yl)sulfonyl)-2-((5aS,9aR)-6,7,9,9a-tetrahydro-1H-pyrano[3,4-b]pyrrolo[3′,2′:5,6]pyrido[3,2-e][1,4]oxazin-5(5aH)-yl)benzamide] | 7.57 |
| CC(C)Oc1ccccc1[C@@H]1CN(C2CCC3(CCOCC3)CC2)CCN1C1CC2(CCN(c3ccc(C(=O)NS(=O)(=O)c4cc5c(c([N+](=O)[O-])c4)N[C@H](C4CCOCC4)CO5)c(N4c5cc6cc[nH]c6nc5O[C@H]5COCC[C@@H]54)c3)CC2)C1 (stereo partly drawn) [Example 209, 2-[(3R,8S)-2,5-dioxa-9,15,17-triazatetracyclo[8.7.0.0^{3,8}.0^{12,16}]heptadeca-1(10),11,13,16-tetraen-9-yl]-4-{2-[(2R)-2-(2-isopropoxyphenyl)-4-{3-oxaspiro[5.5]undecan-9-yl}piperazin-1-yl]-7-azaspiro[3.5]nonan-7-yl}-N-[(3R)-5-nitro-3-(oxan-4-yl)-3,4-dihydro-2H-1,4-benzoxazin-7-ylsulfonyl]benzamide] | 7.79 |
| CC(C)Oc1ccccc1[C@@H]1CN([C@H]2CCOc3cc(F)c(F)cc32)CCN1C1CC2(CCN(c3ccc(C(=O)NS(=O)(=O)c4cc5c(c([N+](=O)[O-])c4)N[C@H](C4CCOCC4)CO5)c(N4c5cc6cc[nH]c6nc5O[C@H]5COCC[C@@H]54)c3)CC2)C1 [Example 210, 4-{2-[(2R)-4-[(4S)-6,7-difluoro-3,4-dihydro-2H-1-benzopyran-4-yl]-2-(2-isopropoxyphenyl)piperazin-1-yl]-7-azaspiro[3.5]nonan-7-yl}-2-[(3R,8S)-2,5-dioxa-9,15,17-triazatetracyclo[8.7.0.0^{3,8}.0^{12,16}]heptadeca-1(10),11,13,16-tetraen-9-yl]-N-[(3R)-5-nitro-3-(oxan-4-yl)-3,4-dihydro-2H-1,4-benzoxazin-7-ylsulfonyl]benzamide] | 7.42 |
